Experiments:
[1] = test system: DU-145; experiment: Anticancer activity against human DU-145 cells; type: functional, cell-based
[2] = test system: MCF7; experiment: Anticancer activity against human MCF7 cells; type: functional, cell-based
[3] = test system: HepG2; experiment: Anticancer activity against human HepG2 cells; type: functional, cell-based
[4] = test system: PC-3; experiment: Anticancer activity against human PC-3 cells; type: functional, cell-based
[5] = test system: RKO; experiment: Anticancer activity against human RKO cells; type: functional, cell-based
[6] = Inhibition of TK (unknown origin); design: species or system Homo sapiens
[7] = test system: SW480; experiment: Anticancer activity against human SW480 cells; type: functional, cell-based
[8] = test system: COLO 320; experiment: Anticancer activity against human COLO 320 cells; type: functional, cell-based
[9] = test system: SW837; experiment: Anticancer activity against human SW837 cells; type: functional, cell-based
[10] = test system: DLD-1; experiment: Anticancer activity against human DLD-1 cells; type: functional, cell-based
[11] = test system: HCT-116; experiment: Anticancer activity against human HCT-116 cells; type: functional, cell-based
[12] = test system: HT-29; experiment: Anticancer activity against human HT-29 cells; type: functional, cell-based
[13] = test system: SNU-C1; experiment: Anticancer activity against human SNU-C1 cells; type: functional, cell-based
[14] = test system: HepG2; experiment: Antiproliferative activity against human HepG2 cells; type: functional, cell-based
[15] = test system: MDA-MB-231; experiment: Antiproliferative activity against human MDA_MB-231 cells; type: functional, cell-based
[16] = Antiproliferative activity against mouse 4T1-Luc cells; type: functional, cell-based
[17] = test system: HT-29; experiment: Antiproliferative activity against human HT-29 cells assessed as reduction in cell viability incubated for 72 hrs by MTT assay; type: functional, cell-based; conditions: HT-29, 72 h
[18] = Antiproliferative activity against human MCF7/MX cells assessed as reduction in cell growth incubated for 24 hrs by MTT assay; type: functional, cell-based
[19] = test system: A549; experiment: Antiproliferative activity against human A549 cells assessed as reduction in cell viability incubated for 72 hrs by MTT assay; type: functional, cell-based; conditions: A549, 72 h
[20] = test system: MCF7; experiment: Cytotoxicity against human MCF7 cells assessed as reduction in cell growth incubated for 24 hrs by MTT assay; type: functional, cell-based; conditions: MCF7, 24 h
[21] = test system: A549; experiment: Antiproliferative activity against human A549 cells assessed as reduction in cell growth incubated for 24 hrs by MTT assay; type: functional, cell-based; conditions: A549, 24 h
[22] = test system: HCT-116; experiment: Cytotoxicity against human HCT-116 cells assessed as reduction in cell viability incubated for 24 hrs by MTT assay; type: functional, cell-based; conditions: HCT-116, 24 h
[23] = test system: Jurkat; experiment: Antiproliferative activity against human Jurkat cells assessed as reduction in cell viability incubated for 72 hrs by MTT assay; type: functional, cell-based
[24] = test system: MCF7; experiment: Antiproliferative activity against human MCF7 cells assessed as reduction in cell growth incubated for 24 hrs by MTT assay; type: functional, cell-based; conditions: MCF7, 24 h
[25] = test system: RS4-11; experiment: Antiproliferative activity against human RS4-11 cells assessed as reduction in cell viability incubated for 72 hrs by MTT assay; type: functional, cell-based; conditions: RS4-11, 72 h
[26] = Cytotoxicity against HUVEC cells; type: toxicity, cell-based; conditions: human
[27] = test system: HL-60; experiment: Cytotoxicity against human HL-60 cells assessed as reduction in cell growth incubated for 24 hrs by MTT assay; type: functional, cell-based; conditions: HL-60, 24 h
[28] = test system: A549; experiment: Cytotoxicity against human A549 cells; type: functional, cell-based
[29] = test system: HepG2; experiment: Antiproliferative activity against human HepG2 cells assessed as reduction in cell growth incubated for 24 hrs by MTT assay; type: functional, cell-based; conditions: HepG2, 24 h
[30] = test system: MCF7; experiment: Antiproliferative activity against human MCF7 cells assessed as reduction in cell viability incubated for 72 hrs by MTT assay; type: functional, cell-based; conditions: MCF7, 72 h
[31] = test system: HT-29; experiment: Antiproliferative activity against human HT-29 cells assessed as inhibition of cell growth at 20 uM measured for 48 hrs by MTT assay relative to control; type: functional
[32] = test system: HeLa; experiment: Antiproliferative activity against human HeLa cells assessed as inhibition of cell growth at 20 uM measured for 48 hrs by MTT assay relative to control; type: functional
[33] = test system: HCT-15; experiment: Antiproliferative activity against human HCT-15 cells assessed as inhibition of cell growth at 20 uM measured for 48 hrs by MTT assay relative to control; type: functional
[34] = test system: A549; experiment: Antiproliferative activity against human A549 cells assessed as inhibition of cell growth at 20 uM measured for 48 hrs by MTT assay relative to control; type: functional
[35] = test system: MDA-MB-231; experiment: Antiproliferative activity against human MDA-MB-231 cells assessed as inhibition of cell growth at 20 uM measured for 48 hrs by MTT assay relative to control; type: functional
[36] = test system: A549; experiment: Cytotoxicity against human A549 cells assessed as reduction in cell growth; type: functional, cell-based
[37] = test system: BXPC-3; experiment: Antiproliferative activity against human BXPC-3 assessed as reduction in cell growth; type: functional, cell-based
[38] = test system: HFF; experiment: Anticancer activity against human HFF cells assessed as reduction in cell viability at 10 ug/ml measured for 48 hrs by MTT assay relative to control; type: functional; conditions: dose 10 µg/ml
[39] = test system: HFF; experiment: Anticancer activity against human HFF cells assessed as reduction in cell viability at 10 ug/ml measured for 24 hrs by MTT assay relative to control; type: functional; conditions: dose 10 µg/ml
[40] = test system: HCT-116; experiment: Anticancer activity against human HCT-116 cells assessed as reduction in cell viability at 50 ug/ml measured for 48 hrs by MTT assay relative to control; type: functional; conditions: dose 50 µg/ml
[41] = test system: MCF7; experiment: Anticancer activity against human MCF7 cells assessed as reduction in cell viability at 10 ug/ml measured for 24 hrs by MTT assay relative to control; type: functional; conditions: dose 10 µg/ml
[42] = test system: HCT-116; experiment: Anticancer activity against human HCT-116 cells assessed as reduction in cell viability at 10 ug/ml measured for 48 hrs by MTT assay relative to control; type: functional; conditions: dose 10 µg/ml
[43] = test system: HFF; experiment: Anticancer activity against human HFF cells assessed as reduction in cell viability at 50 ug/ml measured for 48 hrs by MTT assay relative to control; type: functional; conditions: dose 50 µg/ml
[44] = test system: HFF; experiment: Anticancer activity against human HFF cells assessed as reduction in cell viability at 50 ug/ml measured for 24 hrs by MTT assay relative to control; type: functional; conditions: dose 50 µg/ml
[45] = test system: HCT-116; experiment: Anticancer activity against human HCT-116 cells assessed as reduction in cell viability at 50 ug/ml measured for 24 hrs by MTT assay relative to control; type: functional; conditions: dose 50 µg/ml
[46] = test system: MCF7; experiment: Anticancer activity against human MCF7 cells assessed as reduction in cell viability at 50 ug/ml measured for 48 hrs by MTT assay relative to control; type: functional; conditions: dose 50 µg/ml
[47] = test system: HCT-116; experiment: Anticancer activity against human HCT-116 cells assessed as reduction in cell viability at 10 ug/ml measured for 24 hrs by MTT assay relative to control; type: functional; conditions: dose 10 µg/ml
[48] = test system: MCF7; experiment: Anticancer activity against human MCF7 cells assessed as reduction in cell viability at 10 ug/ml measured for 48 hrs by MTT assay relative to control; type: functional; conditions: dose 10 µg/ml
[49] = test system: MCF7; experiment: Anticancer activity against human MCF7 cells assessed as reduction in cell viability at 50 ug/ml measured for 24 hrs by MTT assay relative to control; type: functional; conditions: dose 50 µg/ml
[50] = Anticancer activity against human MCF-10A cells assessed as reduction in cell viability measured for 24 hrs by MTT assay; type: toxicity, cell-based
[51] = test system: MDA-MB-231; experiment: Anticancer activity against human MDA-MB-231 cells assessed as reduction in cell viability measured for 24 hrs by MTT assay; type: functional, cell-based; conditions: MDA-MB-231, 24 h

For `Cc1nc([N+](=O)[O-])c(N2CCN(CCCBr)CC2)n1Cc1ccccc1`, the IC50 [1] was 53700 nM, the IC50 [2] was 46200 nM and the IC50 [3] was 32100 nM. For the same molecule, the IC50 [4] was 48600 nM.
`COc1cccc2c1C=C(c1ncc(-c3ccc(OCc4ccccc4)cc3)[nH]1)CO2` gave an IC50 [5] of 370 nM, an IC50 [6] of 4730 nM and an IC50 [7] of 370 nM. It also gave an IC50 [8] of 370 nM, an IC50 [9] of 370 nM and an IC50 [10] of 370 nM. It also gave an IC50 [11] of 370 nM, an IC50 [12] of 370 nM and an IC50 [13] of 370 nM.
`CCOC(=O)c1nn(-c2ccc(Cl)cc2)/c(=N\NC2=NC(c3ccccc3)(c3ccccc3)C(=O)N2)s1` showed an IC50 [14] of 720 nM.
In the case of `Cc1[nH]c(SCc2ccccc2)nc1Cc1ccccc1`, the IC50 [15] is reported as 8260 nM and the IC50 [16] is reported as 8030 nM.
Work on `COc1ccc(/C=C\c2cc(OC)c(OC)c(OC)c2)cc1O` [COMBRETASTATIN A4] yielded an IC50 [17] of 180 nM, an IC50 [18] of 1490 nM and an IC50 [19] of 3100 nM. It also gave an IC50 [20] of 3570 nM, an IC50 [21] of 860 nM and an IC50 [22] of 2630 nM. The IC50 [23] was 0.8 nM, the IC50 [24] was 430 nM and the IC50 [25] was 370 nM. For the same molecule, the IC50 [26] was 119000 nM, the IC50 [27] was 770 nM and the IC50 [28] was 48 nM. It also gave an IC50 [29] of 630 nM and an IC50 [30] of 5 nM.
`S=c1[nH]c(-n2nnc3ccccc32)cn1-c1ccc(Cl)cc1Cl` showed an IC50 [20] of 580 nM, an IC50 [22] of 240 nM and an IC50 [26] of 13600 nM. The IC50 [27] was 400 nM.
Molecule `CCCCCCCCCCCCn1cnc(C(=O)OCC)c1N` has an inhibition at 20 µM [31] of 82%, an inhibition at 20 µM [32] of 85% and an inhibition at 20 µM [33] of 52%. It also gave an inhibition at 20 µM [34] of 54% and an inhibition at 20 µM [35] of 69%.
`Cc1[nH]c(SCc2c(F)cccc2F)nc1Cc1ccccc1` gave an IC50 [15] of 9500 nM and an IC50 [16] of 6660 nM.
Molecule `C#Cc1cccc(Nc2ncnc3cc(OCCOC)c(OCCOC)cc23)c1` [ERLOTINIB] has an IC50 [36] of 25200 nM and an IC50 [37] of 9800 nM.
For `Nc1nc(-c2ccccc2)cn1/N=C/c1cnc2ccccc2n1`, the Activity [38] was 33.3%, the Activity [39] was 7.1% and the Activity [40] was 66.6%. The Activity [41] was 41.1%, the Activity [42] was 50% and the Activity [43] was 37.5%. It also gave an Activity [44] of 35.7%, an Activity [45] of 70% and an Activity [46] of 83.3%. It also gave an Activity [47] of 46.6%, an Activity [48] of 47.3% and an Activity [49] of 64.7%.
For `CCOC(=O)c1ccccc1-n1c(-c2c(O)[nH]c(=O)[nH]c2=O)cnc1C`, the IC50 at 24 h [50] was > 100000 nM and the IC50 [51] was 53600 nM.

From ChEMBL document CHEMBL6074649, “An insight into recent developments in imidazole based heterocyclic compounds as anticancer agents: Synthesis, SARs, and mechanism of actions” (Eur J Med Chem, 2024)
